Reference: patent US20060074018A1, “Methods of diagnosing & treating diabetes and insulin resistance” (Metabolex Inc, priority 2002, published 2006)

Key:
Assay type in all cases: in vivo, human
[1] = system: connective tissue growth factor (CTGF) mRNA; assay: Gene expression profiling of muscle samples on custom Affymetrix chips, probe set mbxhummus 24330; conditions: muscle of diabetics, Clamp sample
Excerpt: (§1) The molecular mechanism by which thiazolidinediones (TZDs) cause an increase in peripheral insulin sensitivity was studied. Genes in muscle or fat whose expression is altered by TZDs may lie on a pathway leading from TZD treatment to increased insulin sensitivity. Modulators of such genes can elicit the same effect as TZD treatment. Moreover, such modulators can lack some of the side effects of TZD. The majority of glucose disposal occurs in muscle. For this reason, gene expression profiling in human muscle from diabetics treated with troglitazone was used to identify genes important for TZD action and therefore treatment of diabetes and insulin resistance. […] The gene expression profile for each individual was determined by hybridization of cRNA to custom synthesized Affymetrix chips. Gene expression profile differences were calculated as follows. […] The raw data was analyzed by a statistical test to remove ‘outliers’. The mean ‘average difference score’ was then calculated from the average difference scores for all individuals in a particular treatment group. Genes were determined to be changed in condition 1 (such as basal diabetics before trogliazone (tro) treatment) versus condition 2 (such as basal diabetics after troglitazone treatment) by calculating the Students t test statistic between the two conditions and selecting those with t less than or equal to 0.05. […]

[2] = system: TIEG mRNA; assay: Gene expression profiling of muscle samples on custom Affymetrix chips, probe set mbxhummus23808; conditions: muscle of diabetics, Basal sample
Excerpt: as §1

[3] = system: CTGF expression; assay: Real time PCR analysis of muscle samples, CTGF; conditions: mean post-Tro/mean pre-Tro
Procedure: (§2) The gene expression changes observed in the human muscle samples derived from lean and diabetic individuals or from diabetic individuals post-Troglitazone treatment, were further confirmed by the use of real-time quantitative PCR. A combination of specific PCR primers and a Taqman probe were designed to detect and quantify expression levels for each gene. Relative gene expression levels were determined in this manner in each patient and the mean expression level in either the lean or diabetic patient population was then calculated.

[4] = system: TIEG expression; assay: Real time PCR analysis of muscle samples, TIEG; conditions: mean post-Tro/mean pre-Tro
Procedure: as §2

[5] = 3 months of Troglitazone treatment
[6] = after 3 months of Troglitazone treatment, mean average difference score

Cc1c(C)c2c(c(C)c1O)CCC(C)(COc1ccc(CC3SC(=O)NC3=O)cc1)O2 (stereo not drawn) [Troglitazone, troglitazone]
Fold Change diabetic post tro/diabetic pre tro (Connective Tissue Growth Factor) [1, 5]: 0.07
Diabetic Post-Trog Mean Expr (Connective Tissue Growth Factor) [1, 6]: 29
Fold Change diabetic post-trog/diabetic pre-trog (TIEG) [2, 5]: 0.65
Diabetic Post-Trog Mean Expr (TIEG) [2, 6]: 2634
Expression Fold change, CTGF, Diabetics + Tro/Diabetics − Tro [3]: 0.35
Expression Fold change, TIEG, Diabetics + Tro/Diabetics − Tro [4]: 0.69
